Data on two compounds can be found in patent US20080119548A1, “Control Of Feeding Behavior By Changing Neuronal Energy Balance” (priority 2004, published 2008).

Structures are written as SMILES. Like-named read-outs stand apart in the source and are kept apart here.

For assay [1], the system named is BALB/c male mice. As to the kind of experiment: Measurement of food intake after i.c.v. or i.p. injection. It is filed as in vivo. As to conditions: for reduction in food intake: compound C 5 mg i.c.v. As for the experimental part: Male BALB/c mice (7-9 weeks) were purchased from Charles River Laboratories (and housed in a controlled-light (12 hr light/12 hr dark cycle) environment (lights on 0200-1400 h) and allowed ad libitum access to standard laboratory chow and water. For fasting, food was withdrawn from cage at the onset of the dark cycle for 24 hr, but ad libitum access to water was allowed.
(§1) Mice were implanted with permanent stainless steel cannulae into the lateral ventricle of the brain 0.6 mm caudal to Bregma, 1.2 mm lateral to the midline, and sunk to a depth of 2.2 mm below the surface of the skull. Implanted mice were housed in individual cages and utilized for i.c.v. and i.p. injections as indicated. C75 dissolved in RPMI1640 (Gibco-BRL), AICAR (Toronto Research Chemicals Inc) or compound C (46) (FASgen, Inc.) in saline was injected i.c.v., such that desired dose could be administered in a volume of 2.5 μl, while control groups received vehicle only. Injections were done immediately preceding dark onset and food intake measurements were taken at 1 hr (0-1 hr interval), 3 hr (1-3 hr interval), and 24 hr (3-24 hr interval) after dark onset. C75 i.p./AICAR i.c.v. treatment groups were i.p. injected with 5 mg/kg bodyweight C75 dissolved in […] of glucose-free RPMI 1 hr before the dark onset, followed by 3 μg/2.5 μl saline i.c.v. AICAR immediately preceding the dark onset. Control groups received 200 μl of glucose free RPMI 1 hr before lights off and 2.5 μl of saline. Administration of i.p. compound C (10 or 30 mg/kg bodyweight) or C75 (10 mg/kg bodyweight) was followed by food intake measurement at the same times indicated.

Assay [2] in a line: Changes in bodyweight 24 hr after i.c.v. injection. Type of assay: in vivo, mice.
Excerpt: as §1, with “(d) Changes in bodyweight 24 hr after i.c.v. injection of C75, AICAR or compound C (n=4-10). Mice” for “Mice”, “[…],” for “C (46) (FASgen,”, “[…].” for “C75 i.p./AICAR i.c.v.”

Assay [3] concerns hypothalamic AMPKα (α1 and α2). Kind of assay: Western blot of phosphorylated AMPKα in hypothalamus. As to conditions: 30 min after i.c.v. injection. It is filed as in vivo, mice. As to the method: Hypothalami were dissected using as landmarks the optic chiasm rostrally, and the mammillary bodies caudally to a depth of 2 mm. Dissected hypothalamic and liver tissue were immediately frozen in liquid nitrogen. Tissues were homogenized in 200 μl of lysis buffer (50 mM Tris-HCl, pH 7.5, 250 mM sucrose, 5 mM sodium pyrophosphate, 50 mM NaF, 1 mM EDTA, 1 mM EGTA, 1 mM DTT, 0.5 mM PMSF, 0.1 mM benzamidine, 50 μg/ml leupeptin, 50 μg/ml soybean trypsin inhibitor). SDS detergent was added to a final 0.2%, and lysates were boiled for 5 min. After the supernatant was harvested, protein concentration was determined by BCA kit (Bio Rad). Phosphorylation of AMPKα was determined on a 4-15% gradient SDS-polyacrylamide gel using anti-phospho-AMPKα (α1 and α2, Thr172) antibody (1:1000, Cell Signaling). Anti-AMPKαt antibody (α1 and α2, 1:1000, Cell Signaling) was used as a loading control.
In general terms: A western blot detects proteins with antibodies after separation by electrophoresis.

For assay [4], the system named is pCREB. Kind of assay: Immunohistochemistry of pCREB in the arcuate nucleus. It is filed as in vivo, mice. The conditions noted are these: AICAR (3 mg) i.c.v., 20 hr after injection. As to the method:
Free-floating sections were blocked in PBS containing 5% goat serum, 0.1% BSA, 0.05% Triton-X100, 1 mM NaF for 1 hr at room temperature and incubated with anti-phospho-AMPKα (α1 and α2) antibody (1:100) or anti-phospho-CREB antibody (1:500, Cell Signaling) in PBS containing 1% goat serum, 0.1% BSA, 0.05% Triton-X100, 1 mM NaF overnight at 4° C. Signal was visualized by Vectastain ABC kit (Vector). Images of in situ hybridization and immunohistochemistry were visualized using an Axiocam HRc digital camera (Carl Zeiss) and images were acquired using Improvision Openlab software, and quantified by NIH Image program (Macro).

Assay [5] has as its system hypothalamic NPY. As for the experimental part:
Hypothalamic total RNA was purified using Trizol reagent (Gibco-BRL) and Northern blot analysis using 15 μg of total RNA was performed as described by Kim, et al, Am J Physiol Endocrinol Metab., 283, […]-879 (2002). RNA was hybridized with random primed ^32P-labeled DNA probes made from cloned plasmids of mouse AGRP (Genebank #U89486), human NPY (XM004941), rat CART (U10071), and mouse POMC (AH005319). As a loading control, the probe for mouse GAPDH gene was used at the same blot. The signals were quantified using an image analyzer (Molecular Dynamics) and Imagequant software.

For assay [6] the following is noted: chronic subcutaneous AICAR 1 g/kg bodyweight for 4 weeks; cited from earlier work.

Turning to `NC(=O)c1ncn([C@@H]2O[C@H](CO)[C@@H](O)[C@H]2O)c1N` [AICAR, 5-aminoimidazole-4-carboxamide-1-b-D-ribofuranoside], the “food intake, % of control” value in assay [1] (AICAR 3 μg i.c.v., 3-24 hr) turned out to be 135%. In assay [1] (AICAR 3 μg i.c.v., total 24 hr), the “total 24 hr food intake, % of control” value was 130 % of control. Also, in assay [1] (AICAR 3 μg i.c.v., within 1 hr), the “food intake, % of control” value came to 230%. Moreover, the “food intake at 1 hr, % of the amount of C75/saline treatment” value in assay [1] (C75 5 mg/kg i.p. followed 1 hr later by AICAR 3 mg i.c.v., p<0.001) was 346%. In addition, the bodyweight result in assay [2] (AICAR single dose 3 μg i.c.v.) was “no significant effect on bodyweight”. Besides, the “C75-induced decrease in hypothalamic pAMPKα levels” value in assay [3] (i.p. C75 and i.c.v. AICAR) was “completely reversed”. Besides, the “hypothalamic pAMPKα level” value in assay [3] (i.p. RPMI and i.c.v. AICAR, vs vehicle) was “increased”. The “pCREB level in the arcuate, % of control” value in assay [4] is 231 % of control. Further, the “hypothalamic NPY expression” value in assay [5] (AICAR (3 mg) i.c.v., 20 hrs after administration, p<0.001) is recorded as “significantly increased”. Moreover, the NPY expression result in assay [5] (AICAR i.c.v., within 5 hr (data not shown)) was “no change”. For the same compound, in assay [6], the bodyweight entry was “no impact”, the fat pad mass entry was “reduction in fat pad mass”, the food intake entry is reported as “no impact” and the liver mass result is on record as “increase in liver mass”.

For `c1cc(-c2cnn3cc(-c4ccc(OCCN5CCCCC5)cc4)cnc23)ccn1` [compound C], the entries for the “reduction in food intake” value in assay [1] (0-1 hr), in assay [1] (3-24 hr) and in assay [1] (over 24 hr) were 36.2%, 37.8% and 35.6%, respectively. Moreover, the “food intake, % of control” value is recorded as 27.4 % of control in assay [1] (compound C 30 mg/kg bodyweight i.p., 0-1 hr); 3.68 % of control in assay [1] (compound C 30 mg/kg bodyweight i.p., 1-3 hr); 65.7 % of control in assay [1] (compound C 30 mg/kg bodyweight i.p., 3-24 hr); 57.8 % of control in assay [1] (compound C 30 mg/kg bodyweight i.p., total). Besides, the bodyweight result in assay [2] (compound C 5 mg i.c.v.) is “weight loss”.
